# Assay results reported in patent US9845330B2, “6-nitro-2,3-dihydroimidazo[2,1-b]oxazoles and a process for the preparation thereof” (priority 2013, dated 2017).
# Read-outs that look alike come from different tables or passages of the source.
# Legend:
# M. tuberculosis H37Rv = experiment: Combination studies, checkerboard method; format: cell-based, Mycobacterium tuberculosis; details: for MIC alone / MIC with IA25 / MIC with IIA3 / MIC with Ethambutol / MIC with INH / MIC with Rifampicin: checkerboard; for MIC with IA25: in combination with IA25; for MIC with IIA3: in combination with IIA3; for MIC with Ethambutol: in combination with Ethambutol; for MIC with INH: in combination with INH; for MIC with Rifampicin: in combination with Rifampicin
# Description: The efficacy of compounds IA25 and IIA3 (conc range 4 μg/ml to 0.007 μg/ml) in combination with currently used anti-TB drugs such as rifampicin, isoniazid and ethambutol (each drug tested at conc range 4 μg/ml to […]), wherein the ratio of drugs was ranging between 0.1% to 50%, was determined in vitro using checkerboard method. The checkerboard procedure was performed based on the MIC values by the broth microdilution method. The checkerboard method was performed in 96 well U bottom microtitre plates. 100 microliters of 4× concentration of drug was added to first column of the plate. 50 microliters from first column was transferred to second column and was serially diluted in horizontal manner upto column 10 of the plate. Seven dilutions of 4× concentration of compound were prepared in eppendorfs and fifty microliters of each concentration was added vertically starting from eleventh column of row eight to row second of the plate. First row of the plate served as drug control. 100 microliters of 1:10 diluted of 1 Mc Farland inoculum was added to each well of the plate. Plates were then incubated at 37° C. for 14 days. MIC of drug alone and in presence of compound and vice versa was observed visually. […] The FIC index value for each concentration of two-drug combination was calculated and the minimum value was adopted.
# [1] = In vivo pharmacokinetics, oral, mice; parameters: species or system Balb/c mice; Ka: unit not given here; details: 5 mg/kg oral, plasma
# Description: Compounds were administered orally to mice (Balb/c mice) at a dose of 5 mg/kg as a suspension in 0.5% CMC and Tween 80. Samples were derived from plasma at different time points i.e. 0.16 h, 0.5 h, 1 h, 2 h, 4 h, 6 h, 8 h and 24 h, which were then analysed by LC-MS/MS to generate the required pharmacokinetic parameters.
# [2] = system: macrophage J774 cells line; experiment: Cytotoxicity assay (MTT) in macrophage J774 cells; format: cell-based; details: J774 cells, 24 hrs, MTT
# Procedure, shortened: (§1)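 J774 cells seeded at 3×10^4 cells/cm^2 in RPMI with FCS reduced to 5%, then exposed to compounds at 40 μg/ml for 24 hrs. MTT reduction read at 450 nm; percentage cytotoxicity calculated relative to untreated cells.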
# [3] = Cytotoxicity assay (MTT) in macrophage J774 cells; format: cell-based; details: mouse, J774 macrophage cells; also called safety index
# Procedure, shortened: as §1
# [4] = system: M. tuberculosis H37Rv (ATCC 27294); experiment: MIC by broth dilution method, M. tuberculosis H37Rv; format: cell-based; details: Mycobacterium tuberculosis
# [5] = FIC A, drug in combination with IA25
# [6] = FIC A, drug in combination with IIA3
# [7] = 504 h, broth dilution, 3 weeks, read-out: MIC M. tb H37Rv
# [8] = FIC B, compound in combination with Ethambutol
# [9] = FIC B, compound in combination with INH
# [10] = FIC B, compound in combination with Rifampicin
# [11] = 504 h, read-out: MIC M. tb H37Rv, broth dilution, 3 weeks
# [12] = read-out: MIC value, text summary: sensitive H37Rv as well as MDR and XDR strains of M. tuberculosis
smiles,measurement,setting,value
"CC[C@@H](CO)NCCN[C@@H](CC)CO [Ethambutol, reference compound]",FIC (MIC combination/MIC alone),M. tuberculosis H37Rv; [5],FIC A = 0.25
same,FIC (MIC combination/MIC alone),M. tuberculosis H37Rv; [6],FIC A = 0.5
same,MIC alone,M. tuberculosis H37Rv,1 µg/mL
same,MIC with IA25,M. tuberculosis H37Rv,0.25 µg/mL
same,MIC with IIA3,M. tuberculosis H37Rv,0.5 µg/mL
C[C@]1(COc2ccc(-n3cc(COc4ccc(OC(F)(F)F)cc4)nn3)cc2)Cn2cc([N+](=O)[O-])nc2O1 [IA25],CLB,[1],0.12 mL/min/kg
same,Cmax,[1],1020 nM
same,Ka,[1],1.71
same,Vdarea,[1],0.36 L/kg
same,t1/2absorption,[1],0.41 h
same,Cmax,"[1]; Balb/c, mouse, po, 5 mg/kg",1020 nM
same,AUC,"[1]; Balb/c, mouse",14 µM·h
same,Tmax,"[1]; Balb/c, mouse, read-out: Tmax",2 h
same,Cytotoxicity,[2],>40 µg/mL
same,"selectivity ratio at 24 h, 40 μg/ml",[3],> 10
same,MIC,[4]; [7],0.12 µg/mL
same,FIC (MIC combination/MIC alone),M. tuberculosis H37Rv; [8],FIC B = 0.5
same,FIC (MIC combination/MIC alone),M. tuberculosis H37Rv; [9],FIC B = 0.25
same,FIC (MIC combination/MIC alone),M. tuberculosis H37Rv; [10],FIC B = 0.5
same,MIC alone,M. tuberculosis H37Rv,0.12 µg/mL
same,MIC with Ethambutol,M. tuberculosis H37Rv,0.06 µg/mL
same,MIC with INH,M. tuberculosis H37Rv,0.03 µg/mL
same,MIC with Rifampicin,M. tuberculosis H37Rv,0.06 µg/mL
same,FIC Index (FIC A + FIC B),M. tuberculosis H37Rv; combination with Ethambutol,0.75
same,FIC Index (FIC A + FIC B),M. tuberculosis H37Rv; combination with INH,0.5
same,Observations,M. tuberculosis H37Rv; combination with INH (isoniazid),synergistic effect
same,FIC Index (FIC A + FIC B),M. tuberculosis H37Rv; combination with Rifampicin,0.75
C[C@]1(COc2cccc(-n3cc(COc4ccc(OC(F)(F)F)cc4)nn3)c2)Cn2cc([N+](=O)[O-])nc2O1 [IA33],CLB,[1],1.2 mL/min/kg
same,Ka,[1],0.478
same,Vdarea,[1],0.25 L/kg
same,t1/2absorption,[1],1.448 h
same,Cmax,"[1]; Balb/c, mouse, po, 5 mg/kg",595 nM
same,AUC,"[1]; Balb/c, mouse",3.95 µM·h
same,Tmax,"[1]; Balb/c, mouse, read-out: Tmax",2 h
same,Cytotoxicity,[2],>40 µg/mL
same,"selectivity ratio at 24 h, 40 μg/ml",[3],> 10
same,MIC,[4]; [7],0.12 µg/mL
"C[C@]1(COc2ccc(-c3cc(COc4ccc(OC(F)(F)F)cc4)on3)cc2)Cn2cc([N+](=O)[O-])nc2O1 [IC13, (R)-2-{4-[5-(4-trifluoromethoxyphenoxymethyl)isoxazol-3-yl]phenoxymethyl}-2,3-dihydro-2-methyl-6-nitroimidazo[2,1-b]oxazole]",CLB,[1],0.055 mL/min/kg
same,Ka,[1],1.21
same,Vdarea,[1],0.13 L/kg
same,t1/2absorption,[1],0.57 h
same,Cmax,"[1]; Balb/c, mouse, po, 5 mg/kg",2530 nM
same,AUC,"[1]; Balb/c, mouse",33.7 µM·h
same,Tmax,"[1]; Balb/c, mouse, read-out: Tmax",2 h
same,Cytotoxicity,[2],>40 µg/mL
same,"selectivity ratio at 24 h, 40 μg/ml",[3],> 10
same,MIC,[4]; [11],0.12 µg/mL
same,MIC,[4]; [12],< 1 µg/mL
"C[C@]1(COc2ccc(-c3cc(COc4ccc(F)cc4)on3)cc2)Cn2cc([N+](=O)[O-])nc2O1 [IC14, (R)-2-{4-[5-(4-fluorophenoxymethyl)isoxazol-3-yl]phenoxymethyl}-2,3-dihydro-2-methyl-6-nitroimidazo[2,1-b]oxazole]",CLB,[1],3.37 mL/min/kg
same,Ka,[1],1.056
same,Vdarea,[1],1.54 L/kg
same,t1/2absorption,[1],0.656 h
same,Cmax,"[1]; Balb/c, mouse, po, 5 mg/kg",353 nM
same,AUC,"[1]; Balb/c, mouse",1.55 µM·h
same,Tmax,"[1]; Balb/c, mouse, read-out: Tmax",2 h
same,Cytotoxicity,[2],>40 µg/mL
same,"selectivity ratio at 24 h, 40 μg/ml",[3],> 10
same,MIC,[4]; [11],0.06 µg/mL
same,MIC,[4]; [12],< 1 µg/mL
"C[C@]1(COc2ccc(NC(=O)Nc3ccc(C(F)(F)F)cc3)cc2)Cn2cc([N+](=O)[O-])nc2O1 [IIA3, (R)-1-(4-trifluoromethylphenyl)-3-{4-(2-methyl-6-nitro-2,3-dihydroimidazo[2,1-b]oxazol-2-yl)methoxyphenyl}urea]",Cytotoxicity,[2],>40 µg/mL
same,"selectivity ratio at 24 h, 40 μg/ml",[3],> 10
same,MIC,[4]; [7],0.12 µg/mL
same,MIC,[4]; [12],< 1 µg/mL
same,FIC (MIC combination/MIC alone),M. tuberculosis H37Rv; [8],FIC B = 0.25
same,FIC (MIC combination/MIC alone),M. tuberculosis H37Rv; [9],FIC B = 0.25
same,FIC (MIC combination/MIC alone),M. tuberculosis H37Rv; [10],FIC B = 0.25
same,MIC alone,M. tuberculosis H37Rv,0.5 µg/mL
same,MIC with Ethambutol,M. tuberculosis H37Rv,0.12 µg/mL
same,MIC with INH,M. tuberculosis H37Rv,0.12 µg/mL
same,MIC with Rifampicin,M. tuberculosis H37Rv,0.12 µg/mL
same,FIC Index (FIC A + FIC B),M. tuberculosis H37Rv; combination with Ethambutol,0.75
same,FIC Index (FIC A + FIC B),M. tuberculosis H37Rv; combination with INH,0.75
same,FIC Index (FIC A + FIC B),M. tuberculosis H37Rv; combination with Rifampicin,0.5
same,Observations,M. tuberculosis H37Rv; combination with Rifampicin,synergistic effect
"C[C@]1(COc2ccc(S(=O)(=O)N3CCCC3)cc2)Cn2cc([N+](=O)[O-])nc2O1 [IIC9, (R)-2-{4-(pyrrolidin-1-ylsulfonyl)phenoxymethyl}-2,3-dihydro-2-methyl-6-nitroimidazo[2,1-b]oxazole]",Cytotoxicity,[2],>40 µg/mL
same,"selectivity ratio at 24 h, 40 μg/ml",[3],> 10
same,MIC,[4]; [7],1 µg/mL
"C[C@]1(COc2ccc(S(=O)(=O)N3CCOCC3)cc2)Cn2cc([N+](=O)[O-])nc2O1 [IIC10, (R)-2-{4-(morpholinsulfonyl)phenoxymethyl}-2,3-dihydro-2-methyl-6-nitroimidazo[2,1-b]oxazole]",Cytotoxicity,[2],>40 µg/mL
same,"selectivity ratio at 24 h, 40 μg/ml",[3],> 10
same,MIC,[4]; [7],0.5 µg/mL
same,MIC,[4]; [12],0.5 µg/mL
"NNC(=O)c1ccncc1 [INH, isoniazid, reference compound]",FIC (MIC combination/MIC alone),M. tuberculosis H37Rv; [5],FIC A = 0.25
same,FIC (MIC combination/MIC alone),M. tuberculosis H37Rv; [6],FIC A = 0.5
same,MIC alone,M. tuberculosis H37Rv,0.25 µg/mL
same,MIC with IA25,M. tuberculosis H37Rv,0.06 µg/mL
same,MIC with IIA3,M. tuberculosis H37Rv,0.12 µg/mL
"C[C@]1(COc2ccc(N3CCC(Oc4ccc(OC(F)(F)F)cc4)CC3)cc2)Cn2cc([N+](=O)[O-])nc2O1 [OPC-67683, reference compound]",CLB,[1],0.0717 mL/min/kg
same,Cmax,[1],668 nM
same,Tmax,[1],2.00 h
same,Vdarea,[1],0.76 L/kg
same,t1/2absorption,[1],0.64 h
same,AUC,"[1]; Balb/c, mouse",9.32 µM·h
"CO[C@H]1/C=C/O[C@@]2(C)Oc3c(C)c(O)c4c(O)c(c(/C=N/N5CCN(C)CC5)c(O)c4c3C2=O)NC(=O)/C(C)=C\C=C\[C@H](C)[C@H](O)[C@@H](C)[C@@H](O)[C@@H](C)[C@H](OC(C)=O)[C@@H]1C [Rifampicin, reference compound]",FIC (MIC combination/MIC alone),M. tuberculosis H37Rv; [5],FIC A = 0.25
same,FIC (MIC combination/MIC alone),M. tuberculosis H37Rv; [6],FIC A = 0.25
same,MIC alone,M. tuberculosis H37Rv,0.12 µg/mL
same,MIC with IA25,M. tuberculosis H37Rv,0.03 µg/mL
same,MIC with IIA3,M. tuberculosis H37Rv,0.06 µg/mL
